Target: T1, L-CPT1 (human liver CPT1) (Homo sapiens, UniProt P50416)
T1 construct: made in house; host or cells: Pichia pastoris strain X-33 (pGAPZB/pGAPZA plasmids); crude cell-free extracts
T1 sequence (P50416 1-773): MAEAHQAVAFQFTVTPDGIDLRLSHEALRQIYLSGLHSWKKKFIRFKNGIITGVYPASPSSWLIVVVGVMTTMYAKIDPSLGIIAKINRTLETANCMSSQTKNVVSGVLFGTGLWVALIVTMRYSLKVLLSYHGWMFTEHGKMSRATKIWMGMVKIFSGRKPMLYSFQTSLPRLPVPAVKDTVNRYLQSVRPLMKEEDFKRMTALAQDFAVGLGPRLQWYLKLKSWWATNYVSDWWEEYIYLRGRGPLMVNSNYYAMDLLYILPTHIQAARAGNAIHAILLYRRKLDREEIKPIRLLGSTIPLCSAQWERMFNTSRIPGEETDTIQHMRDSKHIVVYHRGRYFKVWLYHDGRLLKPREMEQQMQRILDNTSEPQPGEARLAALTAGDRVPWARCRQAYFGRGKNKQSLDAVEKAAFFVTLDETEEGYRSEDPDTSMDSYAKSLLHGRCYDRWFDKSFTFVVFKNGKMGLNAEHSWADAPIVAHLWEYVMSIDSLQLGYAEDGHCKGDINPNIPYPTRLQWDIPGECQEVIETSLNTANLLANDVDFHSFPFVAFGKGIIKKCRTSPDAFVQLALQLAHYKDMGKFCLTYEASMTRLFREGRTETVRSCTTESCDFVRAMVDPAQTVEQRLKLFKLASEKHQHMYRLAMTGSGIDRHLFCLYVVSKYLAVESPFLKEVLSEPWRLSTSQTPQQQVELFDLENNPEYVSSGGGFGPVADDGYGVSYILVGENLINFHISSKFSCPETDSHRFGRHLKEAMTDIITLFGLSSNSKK
Experiment: L-CPT1 inhibition, spectrophotometric CPT activity assay with DTNB (Ellman's reagent)
Format: biochemical
Conditions: human liver CPT1 expressed in P. pastoris, cell extracts; carnitine 500 μM, palmitoyl-CoA 80 μM, DTNB 300 μM, pH 7.4
Procedure: Human liver and muscle CPT1 cDNAs and rat CPT2 cDNA were subcloned in pGAPZB or pGAPZA, respectively. These plasmids were used to transform P. pastoris strain X-33 via electroporation after the preparation of electrocompetent cells. High copy number clones were selected where necessary using 0.5 or 1 mg/ml Zeocin. Cultures for activity measurements were induced for 16 h in YPD medium (1% yeast extract, 2% peptone, 2% glucose). Crude cell extracts were prepared by disrupting the cells with glass beads or French Press, depending on fermenter sizes. After centrifugation, the cell-free extracts were resuspended in cell breaking buffer (50 mM Tris, pH 7.4, 100 mM KCl, 1 mM EDTA) in the presence of a protease inhibitor cocktail, before aliquoting and freezing at −20° C.
CPT activity was measured using a spectrophotometric assay using 5,5′-dithio-bis-(2-nitrobenzoic acid) (DTNB) also called Ellman's reagent. […] The assay buffer contained 120 mM KCl, 25 mM Tris, pH 7.4, 1 mM EDTA.

Compound | IC50 [nM]
O=C(O)Cc1ccc(NC(=O)c2ccc3c(c2)N(S(=O)(=O)c2cccc(Cl)c2)CC3)cc1 [Example 7, (4-{[1-(3-Chloro-benzenesulfonyl)-2,3-dihydro-1H-indole-6-carbonyl]-amino}-phenyl)-acetic acid] | 125
COc1ccc(Cl)cc1S(=O)(=O)N1CCc2c(C)cc(C(=O)Nc3ccc(CC(=O)O)cc3)cc21 [Example 14, (4-{[1-(5-Chloro-2-methoxy-benzenesulfonyl)-4-methyl-2,3-dihydro-1H-indole-6-carbonyl]-amino}-phenyl)-acetic acid] | 210

Source: patent US7799933B2, “Sulfonamide derivatives” (Hoffman-La Roche Inc., priority 2006, dated 2010)
